# Target: T1, acetylcholinesterase (AChE) isolated from Electrophorus electricus (Electrophorus electricus, UniProt O42275)
# T1 construct: AChE isolated from Electrophorus electricus; from tissue
# Assay: biochemical
# Settings: AChE IC50
# T1 sequence (O42275 24-633): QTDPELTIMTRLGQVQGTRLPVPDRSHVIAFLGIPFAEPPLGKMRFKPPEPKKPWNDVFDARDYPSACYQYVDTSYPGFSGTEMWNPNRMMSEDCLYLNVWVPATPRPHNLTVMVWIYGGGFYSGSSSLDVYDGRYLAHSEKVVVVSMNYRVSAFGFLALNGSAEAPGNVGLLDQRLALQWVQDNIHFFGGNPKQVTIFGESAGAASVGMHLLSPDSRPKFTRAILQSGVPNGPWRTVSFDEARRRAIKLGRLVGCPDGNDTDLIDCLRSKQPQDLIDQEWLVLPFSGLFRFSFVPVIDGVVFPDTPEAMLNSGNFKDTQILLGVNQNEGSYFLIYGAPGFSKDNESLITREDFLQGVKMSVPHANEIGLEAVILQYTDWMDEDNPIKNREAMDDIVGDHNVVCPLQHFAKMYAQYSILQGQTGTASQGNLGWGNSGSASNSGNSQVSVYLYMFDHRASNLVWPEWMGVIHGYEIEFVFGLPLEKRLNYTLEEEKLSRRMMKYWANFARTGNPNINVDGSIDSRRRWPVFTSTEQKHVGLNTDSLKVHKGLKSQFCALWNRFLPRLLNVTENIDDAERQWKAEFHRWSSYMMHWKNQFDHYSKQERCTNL
row,SMILES,IC50 [nM]
1,"CC(C)C1=NC2CCC34C[C@]35C(=O)C[C@]3(C)[C@@H]([C@H](C)N(C)C)[C@H](O)C[C@@]3(C)[C@@H]5CC[C@H]4[C@]2(C)CN1 (stereo partly drawn) [Compound 51, (20S)-20-dimethylamino-9,19-cyclo-4β,14α-dimethyl-(2-isopropyl-5β-methyl-1,4,5,6-tetrahydro-pyrimidin-5-yl)-5α,9β-pregnan-16α-ol-11-one]",18
2,"CC(C)C1=N[C@H]2CC=C3C[C@H]4C(=O)C[C@]5(C)[C@@H]([C@H](C)N(C)C)[C@H](OC(=O)C(C)(C)C)C[C@@]5(C)[C@@H]4CC[C@H]3[C@]2(C)CO1 [Compound 39, (20S)-10(9->1)abeo-20-dimethylamino-4β,14α-dimethyl-16α-pivalyl-(2′-isopropyl-3,29-dihydro-4H-[1,3]-oxazine)-5α,9β-pregn-1(10)-en-11-one]",198
3,CC(=O)O[C@@H]1C[C@@]2(C)[C@@H]3CC[C@@H]4C(=CC[C@@H]5N=C(C(C)C)OC[C@]54C)C[C@H]3C(=O)C[C@]2(C)[C@H]1[C@H](C)N(C)C [Compound 40],112

# Same assay, conditions: AChE isolated from Electrophorus electricus; read-out: AChE IC50
row,SMILES,IC50 [nM]
1,"CC(C)C1=NC2CC[C@H]3C=C4C(=O)C[C@]5(C)[C@@H]([C@H](C)N(C)C)[C@H](O)C[C@@]5(C)[C@@H]4CC[C@H]3[C@]2(C)CO1 (stereo partly drawn) [Compound 32, (20S)-9(10->19)abeo-4,14α-dimethyl-20-dimethylamino(2′-isopropyl-4′,4′-dihydro[3′,1′]oxazin)-5α,9-pregn-1(10)-en-16α-ol-11-one]",112
2,"CC(C)C(=O)N[C@H]1CCC23C[C@]24C(=O)C[C@]2(C)[C@@H]([C@H](C)N(C)C)[C@H](OC(=O)C(C)(C)C)C[C@@]2(C)[C@@H]4CC[C@H]3[C@]1(C)/C=N/Cc1ccccc1 (stereo partly drawn) [Compound 19, (20S)-16α-pivalyl-3-isobutyrylamino-9,19-cyclo-4α-benzyliminomethyl-4,14α-dimethyl-20-dimethylamino-5α,9-pregnan-11-one]",> 1000
3,"CCC(C)C1=N[C@H]2CC=C3C[C@H]4C(=O)C[C@]5(C)[C@@H]([C@H](C)N(C)C)[C@H](O)C[C@@]5(C)[C@@H]4CC[C@H]3[C@]2(C)CO1 (mixture of isomers) [Compound 8h, (20S)-10(9->1)abeo-4,14α-dimethyl-20-dimethylamino(2′-(1-methylpropyl)-4′,4′ dihydro[3′,1′]oxazin)-5α,9-pregn-1(10)-en-16α-ol-11-one]",27
4,"CC(C)[C@H]1N[C@H]2CC=C3C[C@H]4C(=O)C[C@]5(C)[C@@H]([C@H](C)N(C)C)[C@H](O)C[C@@]5(C)[C@@H]4CC[C@H]3[C@]2(C)CO1 [Compound 12, (20S)-10(9->1)abeo-4,14α-dimethyl-20-dimethylamino(2′β-isopropyl-1′,2′,4′,4′-tetrahydro[3′,1′]oxazin)-5α,9-pregn-1(10)-en-16α-ol-11-one]",823
5,"CC[C@H](C)C(=O)N[C@H]1CCC23C[C@]24C(=O)C[C@]2(C)[C@@H]([C@H](C)N(C)C)[C@H](O)C[C@@]2(C)[C@@H]4CC[C@H]3[C@]1(C)CNCc1ccccc1 (stereo partly drawn) [Compound 62, (20S)-20-dimethylamino-3β-((S)-2-methylbutyrylamino)-9,19-cyclo-4α-benzylaminomethyl-4β,14α-dimethyl-5α,9β-pregnan-16α-ol-11-one]",≥ 100000
6,"CC[C@H](C)C(=O)N[C@H]1CCC23C[C@]24C(=O)C[C@]2(C)[C@@H]([C@H](C)N(C)C)[C@H](O)C[C@@]2(C)[C@@H]4CC[C@H]3[C@]1(C)CN (stereo partly drawn) [Compound 63, (20S)-20-dimethylamino-3β-((S)-2-methylbutyrylamino)-9,19-cyclo-4α-aminomethyl-4β,14α-dimethyl-5α,9β-pregnan-16α-ol-11-one]",637
7,"CC(C)C(=O)N[C@H]1CCC23C[C@]24C(=O)C[C@]2(C)[C@@H]([C@H](C)N(C)C)[C@H](O)C[C@@]2(C)[C@@H]4CC[C@H]3[C@]1(C)/C=N/Cc1ccccc1 (stereo partly drawn) [Compound 45, (20S)-20-dimethylamino-3β-(isobutyrylamino)-9,19-cyclo-4α-benzyliminomethyl-4β,14α-dimethyl-5α,9β-pregnan-16α-ol-11-one]",> 100000
8,"CC(C)C(=O)N[C@H]1CCC23C[C@]24C(=O)C[C@]2(C)[C@@H]([C@H](C)N(C)C)[C@H](OC(=O)C(C)(C)C)C[C@@]2(C)[C@@H]4CC[C@H]3[C@]1(C)/C=N/C([Si](C)(C)C)[Si](C)(C)C (stereo partly drawn) [Compound 54, (20S)-3β-isobutyrylamino-20-dimethylamino-9,19-cyclo-4β,14α-dimethyl-4α-(bis-(trimethylsilanyl)methylimino)methyl-16α-pivalyl-5α,9β-pregnan-11-one]",> 100000
9,"CC(C)C1=NC2CCC34C[C@]35C(=O)C[C@]3(C)[C@@H]([C@H](C)N(C)C)[C@H](OC(=O)C(C)(C)C)C[C@@]3(C)[C@@H]5CC[C@H]4[C@]2(C)CN1 (stereo partly drawn) [Compound 52, (20S)-20-dimethylamino-9,19-cyclo-4β,14α-dimethyl-16α-pivalyl-(2′-isopropyl-1′/3′,3,29-tetrahydropyrimidine)-5α,9β-pregnan-11-one]",29
10,"Cc1ccc(S(=O)(=O)O[C@@H]2C[C@@]3(C)[C@@H]4CC[C@@H]5C6(CC[C@H](NC(=O)C(C)C)[C@@]5(C)CO)C[C@@]46C(=O)C[C@]3(C)[C@H]2[C@H](C)N(C)C)cc1 (stereo partly drawn) [Compound 36, (20S)-3β-isobutyrylamino-20-dimethylamino-9,19-cyclo-4β,14α-dimethyl-4α-hydroxymethyl-16α-tosyl-5α,9β-pregnan-11-one]",> 100000
11,"CN[C@@H](C)[C@H]1[C@H](O)C[C@@]2(C)[C@@H]3CC[C@@H]4C(=CCC5N=C(C(C)C)OC[C@]54C)C[C@H]3C(=O)C[C@]12C (stereo partly drawn) [Compound 33, (20S)-10(9->1)abeo-20-methylamino-4β,14α-dimethyl-(2′-isopropyl-3,29-dihydro-4H-[1,3]-oxazine)-5α,9β-pregn-1(10)-en-16α-ol-11-one]",106
12,"CN[C@@H](C)[C@H]1[C@H](OC(=O)C(C)(C)C)C[C@@]2(C)[C@@H]3CC[C@@H]4C5(CC[C@H](NC(=O)C(C)C)[C@@]4(C)C=O)C[C@@]35C(=O)C[C@]12C (stereo partly drawn) [Compound 43, (20S)-3β-isobutyrylamino-20-methylamino-9,19-cyclo-4β,14α-dimethyl-4α-formyl-16α-pivalyl-5α,9β-pregnan-11-one]",> 100000
13,"CC1=N[C@H]2CC=C3C[C@H]4C(=O)C[C@]5(C)[C@@H]([C@H](C)N(C)C)[C@H](O)C[C@@]5(C)[C@@H]4CC[C@H]3[C@]2(C)CO1 [Compound 8a, (20S)-10(9->1)abeo-4,14α-dimethyl-20-dimethylamino(2′-methyl-4′,4′-dihydro[3′,1′]oxazin)-5α,9-pregn-1(10)-en-16α-ol-11-one]",676
14,"CC(C)C(=O)N[C@H]1CCC23C[C@]24C(=O)C[C@]2(C)[C@@H]([C@H](C)N(C)C)[C@H](O)C[C@@]2(C)[C@@H]4CC[C@H]3[C@]1(C)CNCc1ccccc1 (stereo partly drawn) [Compound 46, (20S)-20-dimethylamino-3β-(isobutyrylamino)-9,19-cyclo-4α-benzylaminomethyl-4β,14α-dimethyl-5α,9β-pregnan-16α-ol-11-one]",33900
15,"CC[C@H](C)C(=O)N[C@H]1CCC23C[C@]24C(=O)C[C@]2(C)[C@@H]([C@H](C)N(C)C)[C@H](O)C[C@@]2(C)[C@@H]4CC[C@H]3[C@]1(C)C=O (stereo partly drawn) [Compound 60, (20S)-20-dimethylamino-3β-((S)-2-methylbutyrylamino)-9,19-cyclo-4α-formyl-4β,14α-dimethyl-5α,9β-pregnan-16α-ol-11-one]",> 100000
16,"CC(C)C(=O)N[C@H]1CCC23C[C@]24C(=O)C[C@]2(C)[C@@H]([C@H](C)N(C)C)[C@H](O)C[C@@]2(C)[C@@H]4CC[C@H]3[C@]1(C)CNC([Si](C)(C)C)[Si](C)(C)C (stereo partly drawn) [Compound 55, (20S)-3β-isobutyrylamino-20-dimethylamino-9,19-cyclo-4β,14α-dimethyl-4α-(bis-(trimethylsilanyl)methylamino)methyl-5α,9β-pregnan-16α-ol-11-one]",> 100000

# Same assay, conditions: read-out: AChE IC50
row,SMILES,IC50 [nM]
1,"CC[C@H](C)C(=O)N[C@H]1CC=C2C[C@H]3C(=O)C[C@]4(C)[C@@H]([C@H](C)N(C)C)[C@H](O)C[C@@]4(C)[C@@H]3CC[C@H]2[C@]1(C)CN [Compound 70, (20S)-10(9->1)-abeo-20-dimethylamino-3-((S)-2-methylbutyrylamino)-4α-aminomethyl-4β,14α-dimethyl-5α,9β-pregn-1(10)-en-16α-ol-11-one]",368

# Target: T2, human serum butyrylcholinesterase (BChE) (Homo sapiens, UniProt P06276)
# T2 construct: BChE isolated from human serum; from tissue; host or cells: human serum
# T2 sequence (P06276 29-602): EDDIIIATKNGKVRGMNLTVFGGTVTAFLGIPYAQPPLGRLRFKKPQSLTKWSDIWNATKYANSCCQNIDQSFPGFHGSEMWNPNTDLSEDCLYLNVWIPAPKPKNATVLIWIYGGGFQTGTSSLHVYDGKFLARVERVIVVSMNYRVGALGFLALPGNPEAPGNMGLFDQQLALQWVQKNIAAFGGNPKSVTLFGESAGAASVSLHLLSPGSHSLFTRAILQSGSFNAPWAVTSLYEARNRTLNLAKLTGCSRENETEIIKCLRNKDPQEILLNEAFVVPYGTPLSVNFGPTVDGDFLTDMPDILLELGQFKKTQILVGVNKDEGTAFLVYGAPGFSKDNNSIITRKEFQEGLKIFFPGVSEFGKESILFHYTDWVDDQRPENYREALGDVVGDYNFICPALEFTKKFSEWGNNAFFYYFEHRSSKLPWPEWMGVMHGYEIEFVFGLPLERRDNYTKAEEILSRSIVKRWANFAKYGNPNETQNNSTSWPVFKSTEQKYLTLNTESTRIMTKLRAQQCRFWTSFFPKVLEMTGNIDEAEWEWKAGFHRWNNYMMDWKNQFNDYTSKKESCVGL
# Assay: biochemical
# Settings: not given
row,SMILES,IC50 [nM]
1,"CC(C)C1=NC2CC[C@H]3C=C4C(=O)C[C@]5(C)[C@@H]([C@H](C)N(C)C)[C@H](O)C[C@@]5(C)[C@@H]4CC[C@H]3[C@]2(C)CO1 (stereo partly drawn) [Compound 32, (20S)-9(10->19)abeo-4,14α-dimethyl-20-dimethylamino(2′-isopropyl-4′,4′-dihydro[3′,1′]oxazin)-5α,9-pregn-1(10)-en-16α-ol-11-one]",1440

# Same assay, conditions: human serum BChE; read-out: BChE
row,SMILES,IC50 [nM]
1,"CC(C)C(=O)N[C@H]1CCC23C[C@]24C(=O)C[C@]2(C)[C@@H]([C@H](C)N(C)C)[C@H](OC(=O)C(C)(C)C)C[C@@]2(C)[C@@H]4CC[C@H]3[C@]1(C)/C=N/Cc1ccccc1 (stereo partly drawn) [Compound 19, (20S)-16α-pivalyl-3-isobutyrylamino-9,19-cyclo-4α-benzyliminomethyl-4,14α-dimethyl-20-dimethylamino-5α,9-pregnan-11-one]",1280
2,"CCC(C)C1=N[C@H]2CC=C3C[C@H]4C(=O)C[C@]5(C)[C@@H]([C@H](C)N(C)C)[C@H](O)C[C@@]5(C)[C@@H]4CC[C@H]3[C@]2(C)CO1 (mixture of isomers) [Compound 8h, (20S)-10(9->1)abeo-4,14α-dimethyl-20-dimethylamino(2′-(1-methylpropyl)-4′,4′ dihydro[3′,1′]oxazin)-5α,9-pregn-1(10)-en-16α-ol-11-one]",1540
3,"CCC(CC)C1=N[C@H]2CC=C3C[C@H]4C(=O)C[C@]5(C)[C@@H]([C@H](C)N(C)C)[C@H](O)C[C@@]5(C)[C@@H]4CC[C@H]3[C@]2(C)CO1 [Compound 8i, (20S)-10(9->1)abeo-4,14α-dimethyl-20-dimethylamino(2′-(1-ethylpropyl)-4′,4′-dihydro[3′,1′]oxazin)-5α,9-pregn-1(10)-en-16α-ol-11-one]",380
4,"CC(C)C(=O)N[C@H]1CC=C2C[C@H]3C(=O)C[C@]4(C)[C@@H]([C@H](C)N(C)C)[C@H](O)C[C@@]4(C)[C@@H]3CC[C@H]2[C@]1(C)CO [Compound 3, (20S)-10(9->1)abeo-4α-hydroxymethyl-3-isobutyrylamino-4,14α-dimethyl-20-dimethylamino-5α,9-pregn-1(10)-en-16α-ol-11-one]",7410
5,"C[C@@H]([C@H]1[C@H](O)C[C@@]2(C)[C@@H]3CC[C@@H]4C(=CC[C@@H]5N=C(Cc6ccccc6)OC[C@]54C)C[C@H]3C(=O)C[C@]12C)N(C)C [Compound 8g, (20S)-10(9->1)abeo-4,14α-dimethyl-20-dimethylamino-(2′-(1-benzyl)-4′,4′-dihydro[3′,1′]oxazine)-5α,9-pregn-1(10)-en-16α-ol-11-one]",> 10000

# — US20120040930A1, “TETRACYCLIC TERPENE SERIES COMPOUNDS, METHODS FOR PREPARING SAME, USES THEREOF AS MEDICINES AND PHARMACEUTICAL COMPOUNDS CONTAINING SAME” (priority 2005, published 2012)
